Experimental data: US20180258100A1, “RAPAMYCIN ANALOGS SHOWING IMPROVED mTORC1 SPECIFICITY” (priority 2015, published 2018)

Columns and labels:
mTORC1 [1] = target: T1, mTORC1 (Homo sapiens, UniProt P42345+P62942); assay: Western blot of PC3 cells treated with 100 nM compound, mTORC1 readout (pS6k/S6k); type: cell-based
T1 construct: endogenous in cells; host or cells: PC3 cells
Procedure: Protein concentrations were determined using the DC protein assay (Biorad). Equal amounts of protein were resolved by SDS-PAGE and transferred to nitrocellulose membrane using the Nu-Page system. […] The following day, blots were washed 3 times in TBST, incubated for 2 h with secondary antibodies, and finally washed an additional 3 times in TBST.

[2] = Steady state glucose levels after one week of i.p. dosing; type: in vivo, female C57BL/6J mice; conditions: 12 mg/kg i.p. every other day, versus vehicle
Procedure: (§1) 10-week old female C57BL/6J mice were given intraperitoneal injections of 8 mg/kg rapamycin (LC laboratories), 12 mg/kg compound 390 or vehicle every other day for three weeks (N=5 mice/group), such as to mimic chronic exposure conditions. 24 hours after the last injection, tissues were dissected from the mice and immediately frozen in liquid nitrogen. The tissues were homogenized using the Omni TH homogenizer (Omni International) on ice in RIPA buffer and then centrifuged at 13,000 rpm for 15 minutes at 4° C. The supernatants were collected and protein concentration was determined using the DC protein assay (Biorad).
Steady state glucose levels were determined after one week from study initiation using a Bayer Contour blood glucose meter and test strips from small blood samples, which were withdrawn from a tail vein nick. At the end of the second week, the animals were challenged by administration of 2 mg/kg glucose; glucose levels were determined for two hours following the challenge at 30 min intervals.

[3] = Glucose challenge response; type: in vivo, female C57BL/6J mice; conditions: 2 mg/kg glucose after 1 week; rapamycin 8 mg/kg, compound 390 12 mg/kg i.p. every other day
Procedure: as §1
Steady state glucose levels were determined after one week from study initiation using a Bayer Contour blood glucose meter and test strips from small blood samples, which were withdrawn from a tail vein nick. […]

[4] = Insulin challenge response; type: in vivo, female C57BL/6J mice; conditions: 0.75 IU/kg insulin after 2 weeks; rapamycin 8 mg/kg, compound 390 12 mg/kg i.p. every other day
Procedure: FIG. 10. Response to insulin challenge following administration of 0.75 IU/kg insulin at t=2 weeks following the initiation of the intraperitoneal administrations of 8 mg/kg rapamycin, 12 mg/kg compound 390 or vehicle control every other day in female mice (N=5).
as §1

mTORC1 [5] = target: T2, mTORC1 (Mus musculus, UniProt P26883+Q9JLN9); assay: Immunoblot of liver, muscle and brain after four weeks, mTORC1; type: in vivo, male C57BL/6J mice; conditions: rapamycin 8 mg/kg, compound 390 12 mg/kg i.p. every other day
Procedure: Fortyfive C57BL/6J male mice, housed three per cage, were weighed and their body composition was measured with an EchoMRI 3-in-1 system. […] Mice received every-other-day injections of either vehicle, rapamycin (8 mg/kg), or compound 390 (12 mg/kg). A glucose tolerance test was performed after 2 weeks (morning after the 8th injection). A pyruvate tolerance test was performed after 3 weeks. Glucose stimulated insulin secretion assay was performed after 4 weeks and additional blood was collected for whole blood analysis. Body composition was measured on day −2 and day 31.
For western blotting, antibodies to phospho-Akt S473 (4060), Akt (4691), phospho-S6 ribosomal protein (2215), S6 ribosomal protein (2217), phospho-4E-BP1 S65 (9451) and 4E-BP1 (9452) were from Cell Signaling Technology.
Cells and tissue samples were lysed in cold RIPA buffer supplemented with phosphatase inhibitor and protease inhibitor cocktail tablets (PI88669, Fisher Scientific). Tissues were lysed in RIPA buffer using a FastPrep 24 (M.P. Biomedicals) with bead-beating tubes and ceramic beads (Mo-Bio Laboratories), and then centrifuged. Protein concentration was determined by Bradford assay (Pierce Biotechnology). Protein was separated by sodium dodecylsulphate-polyacrylamide gel electrophoresis (SDS-PAGE) on 8, 10, or 16% resolving gels (Life Technologies).

mTORC1 [6] = target: T2, mTORC1; assay: Western blot of mouse tissues after 3 weeks i.p. dosing, mTORC1 (P-S6/total S6); type: in vivo, female C57BL/6J mice; conditions: 12 mg/kg i.p. every other day for 3 weeks
Procedure: as §1
(§2) The mTORC1/2 inhibition was determined by Western blots. Equal amounts of protein were resolved by SDS-PAGE and transferred to nitrocellulose membrane using the Invitrogen Nu-Page system. The membranes were blocked for 1 h in 5% milk and incubated overnight in the appropriate antibodies. The following day, blots were washed 3 times in TBST, incubated for 2 h with secondary antibodies (donkey anti rabbit hrp conjugated), and finally washed an additional 3 times in TBST. ECL Prime (Amersham) was used to detect the proteins of interest and ImageJ software was used to quantify the band intensity of the Western blots.

mTORC2 = mTORC2 (Mus musculus, UniProt P26883+Q9JLN9); assay: Western blot of mouse tissues after 3 weeks i.p. dosing, mTORC2 (P-AKT/Total AKT); type: in vivo, female C57BL/6J mice; conditions: soleus muscle, 12 mg/kg i.p. every other day for 3 weeks
Sequence of mTORC2 (P26883 2-108 limits assumed, other chains not shown): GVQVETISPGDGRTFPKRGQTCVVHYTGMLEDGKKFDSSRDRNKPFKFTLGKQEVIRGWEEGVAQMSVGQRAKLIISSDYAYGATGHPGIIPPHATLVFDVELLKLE
Procedure: as §1, §2

[7] = Plasma lipid levels after chronic i.p. dosing; type: in vivo, female C57BL/6J mice; conditions: rapamycin 8 mg/kg, compound 390 12 mg/kg i.p. every other day; versus vehicle
Procedure: as §1
Plasma lipid levels were determined at the end of the three-week exposure. Free fatty acids in the serum were measured by the HR Series NEFA-HR(2) (Wako Diagnostics, Richmond, Va.). Triglycerides and cholesterol in serum were measured by Triglycerides Liquicolor Test and Cholesterol Liquicolor Test (Stanbio laboratory, Boerne, Tex.), respectively.

[8] = Fat mass by EchoMRI body composition after four weeks; type: in vivo, male C57BL/6J mice; conditions: 4 weeks of every other day administration; rapamycin 8 mg/kg, compound 390 12 mg/kg; versus vehicle
Procedure: Fortyfive C57BL/6J male mice, housed three per cage, were weighed and their body composition was measured with an EchoMRI 3-in-1 system. Cages were sorted into three groups—vehicle, rapamycin, and compound 390—such that the average weight was similar for all three groups. Mice received every-other-day injections of either vehicle, rapamycin (8 mg/kg), or compound 390 (12 mg/kg). A glucose tolerance test was performed after 2 weeks (morning after the 8th injection). A pyruvate tolerance test was performed after 3 weeks. Glucose stimulated insulin secretion assay was performed after 4 weeks and additional blood was collected for whole blood analysis. Body composition was measured on day −2 and day 31.

[9] = heart, visceral fat, pancreas, kidney

CO[C@H]1CC2CC[C@@H](C)[C@@](O)(O2)C(=O)C(=O)N2CCCC[C@H]2C(=O)O[C@H]([C@@H](C)CC2CCC(O)CC2)CC(=O)[C@@H](C)/C=C(\C)[C@H](O)[C@H](O)C(=O)[C@@H](C)C[C@H](C)/C=C/C=C/C=C/1C (some centres unmarked) [compound 390, 27-O-Desmethyl-39-Desmethoxy Rapamycin]
mTORC1 inhibition (pS6k/S6k) (mTORC1 [1]): full mTORC1 inhibition | change of steady state glucose plasma levels [2]: does not produce any substantial or statistically significant increase | glucose response after glucose challenge (glucose intolerance) [3]: indistinguishable from the vehicle-receiving control animals | glucose response after insulin challenge (insulin resistance) [4]: indistinguishable from the vehicle-receiving control animals | mTORC1 inhibition in liver, muscle and brain (mTORC1 [5]): significantly inhibits mTORC1 at approximately the same level as rapamycin | mTORC1 inhibition in tissues (mTORC1 [6]; soleus muscle and liver): only partially inhibits mTORC1 | mTORC1 inhibition in tissues (mTORC1 [6]; visceral fat, gastrocnemius muscle, pancreas, lung and kidney): strong inhibition of mTORC1 | mTORC2 inhibition in tissues (mTORC2; gastrocnemius muscle, lung, liver): very weak | change of mTORC2 activity in tissues (mTORC2; [9]): small upregulation of mTORC2 activity | mTORC2 inhibition in tissues (mTORC2; [9]): no inhibition of mTORC2 | plasma cholesterol [7]: did not produce any changes | plasma free fatty acids [7]: did not produce any changes | plasma triglycerides [7]: did not produce any changes | fat mass (adiposity) [8]: does not induce any increase of adiposity
